These are literature values, as cited in patent publication US10584074B2, “Microencapsulated nitrification inhibitor compositions” (Dow AgroSciences LLC, priority 2017, dated 2020).

The conditions of this series: at 23° Celsius.

With `Clc1cccc(C(Cl)(Cl)Cl)n1` [nitrapyrin, 2-chloro-6-(trichloromethyl)pyridine], the vapor pressure was 2.8×10^−3 mm Hg.
